Assay results as given in EP0214933A2, “Mixture preparations for the treatment of malaria” (CIBA-GEIGY AG, priority 1985, dated 1987).
Read-outs that look alike come from different tables or passages of the source.

Tests used:
[1] = system: Plasmodium falciparum T96 Zellinie A; assay: Growth inhibition of chloroquine-sensitive P. falciparum cultured in human erythrocytes; type: cell-based; conditions: for IC20 / IC50: Plasmodium falciparum, Erythrocyte; for IC50: over 2 cycles
From the text: (§1) • a) Durch konventionelles Züchten des Stammes Plasmodium falciparum T96 in einer 2 % (V/V) Suspension von humanen Erythrozyten wird der Grundorganismus-Zellinie A fortgepflanzt, welche eine normale Empfindlichkeit gegenüber Chloroquin aufweist. • b) Zellinie A des obigen Stammes wird unter analogen Standardbedingungen wie unter a) gezüchtet, jedoch mit Zusatz von immer ansteigenden Konzentrationen von Chloroquin, bis eine Chloroquinresistente Zellinie B resultiert, welche weiterhin in Kulturmedien mit einer 500 nM-Konzentration von Chloroquin andauernd normales Wachstum (dieselbe Wachstumsraten wie Zellinie A) aufweist.
(§2) • I. Die Züchtung von Testorganismen erfolgt unter den für Züchtung von Plasmodien üblichen Bedingungen auf einer 2 % Suspension von humanen Erythrozyten, supplementiert mit 50 mg/1 Hypoxanthin und gegebenenfalls unter Zugabe der getesteten Hemmsubstanz in gewünschter Konzentration. Die initiale Parasitämie (- der prozentuelle Anteil der zu Beginn von Plasmodien infizierten Erythrozyten) beträgt 1-2 %. Das Resultat (Hemmwirkung) wird als IC50 ausgewertet, d.h. jene Konzentration des Wirkstoffes, die eine Senkung der finalen Parasitämie um 50 %, d.h. eine 50%ige Hemmung des Wachstums, verursacht. • II. In einer alternativen Versuchsanordnung wird beim Einhalten aller übrigen Bedingungen ohne Zugabe von Hypoxanthin und mit einer initialen Parasitämie von 0,5 % gearbeitet.

[2] = system: Plasmodium falciparum T96 Chloroquinresistente Zellinie B; assay: Growth inhibition of chloroquine-resistant P. falciparum cultured in human erythrocytes; type: cell-based; conditions: for IC50: Plasmodium falciparum, Erythrocyte, over 2 cycles
From the text: as §1, §2

[3] = system: Plasmodium falciparum in Kultur an menschlichen Erythrozyten; conditions: culture on human erythrocytes; cited from earlier work
P. vinckei = conditions: cited from earlier work

CC(=O)N(O)CCCCCNC(=O)CCC(=O)N(O)CCCCCNC(=O)CCC(=O)N(O)CCCCCN [Desferrioxamin B (Mesylat)]
IC20 ([1]; Versuchsanordnung I, Hauptversuch II, read-out: IC20): 9000 nM

CCN(CC)CCCC(C)Nc1ccnc2cc(Cl)ccc12 (stereo not drawn) [Chloroquin, 7-Chlor-4-(4-diethylamino-l-methylbutylamino)chinolin]
IC20 [1]: 10 nM
IC50 ([1]; Versuchsanordnung I (50 mg/l hypoxanthine, initial parasitaemia 1-2 %)): 50 nM
IC50 ([1]; Versuchsanordnung II (no hypoxanthine, initial parasitaemia 0,5 %)): 10 to 15 nM
IC50 ([2]; Versuchsanordnung I): ~800 nM
Vermehrungsfaktor ([2]; Versuchsanordnung I, with 500 nM chloroquine in the medium, same as Zellinie A without chloroquine (within 48 hours)): 7-9

COc1ncnc(NS(=O)(=O)c2ccc(N)cc2)c1OC [Sulfadoxine]
Wachstumshemmung (result in words) ([1]; Hauptversuch II with this substance in place of chloroquine, combined with Desferrioxamin B): Analoge Resulte

CC(=O)N(O)CCCCCNC(=O)CCC(=O)N(O)CCCCCNC(=O)CCC(=O)N(O)CCCCCN [Desferrioxamin B, 6,17,28-Trihydroxy-7,10,18,21,29-pentaoxo-6,11,17,22,28-pentaaza-triacontanylamin]
IC50 ([1]; Versuchsanordnung I, read-out: IC50): 17000 ± 3000 nM
IC50 ([1]; Versuchsanordnung II, read-out: IC50): 5000 ± 2000 nM
Wachstum (in vitro) [3]: nicht nur in ihrem Wachstum gehemmt, sondern auch getötet
IC50 ([2]; Versuchsanordnung I, without chloroquine in the test medium): 6000 ± 1500 nM
IC50 ([2]; Versuchsanordnung II, without chloroquine in the test medium): 2000 ± 1000 nM
Konzentration für dieselbe Wachstumshemmung in the presence of chloroquine ([2]; in the presence of a chloroquine concentration inactive by itself, compared with no chloroquine): halbiert sich noch weiter
Konzentration für dieselbe Wachstumshemmung, resistant strain compared with sensitive strain ([2]; without chloroquine, compared with normally sensitive strain under the same conditions): etwa dreimal niedrigeren Konzentration
Wachstum des Parasiten (P. vinckei; 0,2 g/kg): deutlich hemmt
Wachstum des Parasiten (P. vinckei; 1,0 g/kg): vollständig tötet
